Laboratory results from US7579152B2, “SENP1 as a marker of cancer development and target for cancer therapy” (Board of Regents, the University of Texas System, priority 2004, dated 2009).

How the values were obtained:
cyclin D1 promoter = test: Cyclin D1 promoter CD1 (-1745/+134) luciferase reporter assay in PC-3 cells; format: cell-based; conditions: TSA for 12 hrs at 24 hr after transfection
Description: At 24 hr after transfection, cells were treated different dosage TSA as indicated for 12 hrs and then luciferase activity were determined. All luciferase activity was normalized to individually determined β-gal activity. […] After 48 hr of transfection, the Luciferase activity was measured. All luciferase activity was normalized to individually determined β-gal activity. […] All luciferase activity was normalized to individually determined β-gal activity.
EGFP-SENP1 and EGFP-SENP1mutant (C603A) were prepared by standard cloning and PCR based mutagenesis. CD1 (−1745/+134), CD1 (−963/+134), CD1 (−66/+134), and, CD1 (−66/+134) mutant-driven luciferase plasmids were prepared by PCR cloning strategy (Albanese et al., 1995; Tetsu et al., 1999). […]
To further confirm the role of SENP1 in cyclin D1 transcription, we performed a cyclin D1 promoter-driven luciferase reporter assay (FIG. 16A) as described by Cheng et al, 2004. CD1 (−1745/+134), which corresponded to the original fragment of cyclin D1 5′ sequence cloned from the PRAD1 breakpoint, was transfected into PC-3 cells and its response to SENP1 was measured.

SENP1 [1] = test: SENP1 mRNA levels by quantitative real-time PCR in LNCaP cells after androgen/cytokine treatment; format: cell-based, human; conditions: for SENP1 levels on cytokine treatment: 25 ng/mL, 24 or 48 hr; for Increase in SENP1 levels / SENP1 expression enhanced (mRNA, QRT-PCR): R1881 20 nM; for Increase in SENP1 levels: IL-6 25 ng/mL, or both
Description: (§1) LNCaP, PC-3, and DU145 cells were maintained in RPMI 1640 media containing 10% fetal bovine serum and 1% penicillin/streptomycin. The RWPE2 were maintained in Keratinocyte-Serum Free medium supplemented with 5 ng/ml human recombinant EGF and 0.05 mg/ml bovine pituitary extract. For hormone/cytokine treatment, the maintenance media was replaced with phenol red-free RPMI 1640 media containing 10% charcoal-stripped bovine serum and 1% penicillin/streptomycin.
(§2) Cells (LNCaP and/or PC-3) were prepared for RNA isolation using the RNA-Bee Reagent (Tel-Test Inc, Friendswood, Tex.) according to manufacture's instructions with stock samples diluted to the appropriate concentrations with the DEPC-treated water.
(§3) The TaqMan Master Mix Reagents (Applied Biosystems, Branchburg, N.J.) were utilized for the quantitative real-time PCR (QRT-PCR) reaction. Primers for either SENP1 ([…]; forward: SEQ. ID. NO. 5: 5′-TTGGCCAGAGTGCAAATGG-3′ and reverse: SEQ. ID. NO. 6 5′-[…]-3′) or the housekeeping 18S rRNA were utilized. SENP1 RNA levels were calculated using the TaqMan ABI PRISM 7900 Sequence Detector System (PE Applied Biosystems).

PSA = PSA ELISA assay, secreted PSA of LNCaP cells; format: cell-based, human; conditions: for Increase in PSA levels as compared to control: LNCaP, R1881 20 nM, IL-6 25 ng/mL, or both, 24 hr
Description: as §1
(§4) PC-3 and LNCaP cells were grown in 24-well plates. Cells were transfected with the oligos (40 pmol/well) or siRNA plasmid (200 ng) for one (for PC-3) or three times within 12 hour intervals (for LNcaP) using lipfectamine 2000 (Invitrogen). PSA ELISA or Luciferase assays were used for analysis.
For assessment of PSA, the PSA ELISA assay kit was purchased from MP Biomedicals (Orangeburg, N.Y.) and performed according to manufacturer's instruction. Using a microtiter plate reader, the ng/mL concentration of the cell samples was calculated from the standard curve.

SENP1 [2] = test: SENP1 mRNA levels by quantitative real-time PCR in PC-3 cells after androgen/cytokine treatment; format: cell-based; conditions: 24 hr
Description: as §1, §2, §3

AR = test: ARE-luciferase reporter assay of AR-dependent transcription with co-transfected SENP1; format: cell-based; conditions: PC-3 cells, in the presence of bicalutamide
Description: as §4
Luciferase reporter gene assays were used to examine whether SENP1 could affect AR-dependent transcription. […] This effect was dependent on the presence of AR ligand, R1881. […] Even at very low levels of cotransfected DNA, SENP1 induced AR transactivation. […] As the antagonists of androgen can also bind to the AR, the inventors tested whether SENP1 could act on antagonist-bound AR. […] SENP1 and SENP1 mutant were expressed at similar levels (FIG. 9E) and SENP1 and SENP2 were also expressed similarly (FIG. 9F).

For `CC(/C=C/C(=O)NO)=C\[C@@H](C)C(=O)c1ccc(N(C)C)cc1` [TSA], the “SENP1 induction of cyclin D1 promoter activity” value (cyclin D1 promoter) was “decreased by TSA in a dose-dependent manner”.

In the case of TNF-α, the “SENP1 levels on cytokine treatment” value (SENP1 [1]) is reported as “not”.

For “IL-6: cytokine that promotes activation of AR-dependent transcription via MAPK and JAK/STAT pathways”, the “Increase in PSA levels as compared to control” value (PSA) was 2.2 fold, the “SENP1 levels on cytokine treatment” value (SENP1 [1]) was “enhanced” and the “Increase in SENP1 levels” value (SENP1 [1]; 24 hr) was roughly 5 fold. For the same compound, the “SENP1 levels on cytokine treatment” value (SENP1 [2]; IL-6 25 ng/mL) was “unchanged”.

For `CC(O)(CS(=O)(=O)c1ccc(F)cc1)C(=O)Nc1ccc(C#N)c(C(F)(F)F)c1` (centres unmarked) [bicalutamide], the “Effect of SENP1 on AR-dependent transcription with antagonist-bound AR” value (AR) was “no effect”.

In the case of `C[C@]1(O)CC[C@H]2[C@@H]3CCC4=CC(=O)CCC4=C3C=C[C@@]21C` [R1881], the “Concentration of secreted PSA protein in the cultural medium” value (PSA; LNCaP cells, R1881) is reported as “increased”, the “Increase in PSA levels as compared to control” value (PSA) is reported as 5.6 fold and the “SENP1 levels with increasing R1881 concentration” value (SENP1 [1]; 24 hr) is reported as “increasing R1881 concentration elevates SENP1 levels”. The “SENP1 expression enhanced (mRNA, QRT-PCR)” value (SENP1 [1]; 24 hr) was 5 fold, the “SENP1 expression enhanced (mRNA, QRT-PCR)” value (SENP1 [1]; 48 hr) was 7 fold and the “Increase in SENP1 levels” value (SENP1 [1]; 24 hr) was roughly 5 fold. For the same compound, the “SENP1 expression on R1881 treatment” value (SENP1 [2]; R1881 30 nM) was “unaltered”.
